From patent US20100034944A1, “Use of Avocado Derivatives in Flavor Applications” (priority 2008, published 2010)

Test: flavor descriptors of compounds tasted in salt water, chicken broth, IMP/MSG and NaCl/IMP/MSG solutions

C#CCCCCCCCCCCCC(O)CC(O)COC(C)=O (stereo not drawn) [2,4-Dihydroxy-16-heptadecyn-1-yl acetate, 2,4-dihydroxy-16-heptadecyn-1-yl acetate]
flavor descriptors, Chicken Broth College Inn 50% reduced Na; Fat free (compound 10 ppm in chicken broth): Bitter

C=CCCCCCCCCCCCC(O)CC(O)COC(C)=O (stereo not drawn) [2,4-dihydroxy-16-heptadecen-1-yl acetate]
flavor descriptors, NaCl 0.1% IMP 0.00359 g/L / MSG 0.0508 g/L (compound 10 ppm in NaCl/IMP/MSG solution): Very umami | flavor descriptors, IMP 0.00359 g/L / MSG 0.0508 g/L (compound 20 ppm in IMP/MSG solution): Nice umami
